Entries after “also recorded” stand apart in the source; their conditions may differ.
What was measured:
Type in all cases: in vivo
[1] = tested on: Alopecurus aequalis; assay: greenhouse pot test, Tables 1-2
Procedure: (§1) The test soil is a formulated sandy loam soil. 9.5 centimeter diameter pots are used for herbicidal activity test.
(§2) The soil in the pot for the pre-emergence test was sprayed one day after planting. The preparation liquid for the treatment prepared by mixing individual single-herbicides was diluted with water to the desired dosage.
(§3) The pots for post-emergence treatment are placed into a greenhouse and incubated for 7 to 9 days, and then subjected to leave treatment by spraying. The preparation liquid for the treatment prepared by mixing individual single-herbicides was diluted with water to the desired dosage.
(§4) The treated pots stood for one day, then were placed in a greenhouse and watered regularly. The herbicidal activities of the compositions were evaluated by visual examination after incubating for 14 to 21 days.
(§5) The herbicidal activities of the compositions were evaluated by plant symptoms such as stunting, deformity, chlorosis, and whitening. 0 represents that the compositions have no herbicidal effect or have safety to crops. 100 represents that the weeds or crops were completely killed.

[2] = tested on: Beckmannia syzigachne; assay: greenhouse pot test, Tables 1-2; conditions: BECSY 2 leaves
Procedure: as §1, §2, §3, §4, §5

[3] = tested on: Digitrria sanguinalis; assay: greenhouse pot test, Tables 1-2; conditions: DIGSA 3 leaves
Procedure: as §1, §2, §3, §4, §5

[4] = tested on: Poa annua; assay: greenhouse pot test, Tables 1-2; conditions: POAAN 3 leaves
Procedure: as §1, §2, §3, §4, §5

[5] = tested on: Polypogon fugax; assay: greenhouse pot test, Tables 1-2; conditions: POLFU 3-4 leaves
Procedure: as §1, §2, §3, §4, §5

[6] = tested on: Alopecurus aequalis; assay: greenhouse pot test, post-emergence treatment; conditions: ALOAE 3 leaves
Procedure: as §1, §3, §4, §5

[7] = tested on: Alopercurus japonicus; assay: greenhouse pot test, post-emergence treatment; conditions: ALOJA
Procedure: as §1, §3, §4, §5

[8] = tested on: Cerastium arvense; assay: greenhouse pot test, post-emergence treatment; conditions: CERAR 6 leaves
Procedure: as §1, §3, §4, §5

[9] = tested on: Galium aparine; assay: greenhouse pot test, post-emergence treatment
Procedure: as §1, §3, §4, §5

[10] = tested on: Poa annua; assay: greenhouse pot test, post-emergence treatment; conditions: POAAN
Procedure: as §1, §3, §4, §5

[11] = tested on: Polypogon fugax; assay: greenhouse pot test, post-emergence treatment; conditions: POLFU 4˜4.5 leaves
Procedure: as §1, §3, §4, §5

[12] = tested on: Veronica didyma; assay: greenhouse pot test, post-emergence treatment; conditions: VERDI
Procedure: as §1, §3, §4, §5

[13] = tested on: Alopercurus japonicus; assay: greenhouse pot test, post-emergence early stage treatment; conditions: ALOJA
Procedure: as §1, §3, §4, §5

[14] = tested on: Beckmannia syzigachne; assay: as above; conditions: BECSY 2˜3 leaves
Procedure: as §1, §3, §4, §5

[15] = tested on: Cerastium arvense; assay: as above
Procedure: as §1, §3, §4, §5

[16] = tested on: Galium aparine; assay: as above
Procedure: as §1, §3, §4, §5

[17] = tested on: Poa annua; assay: as above
Procedure: as §1, §3, §4, §5

[18] = tested on: weeds in rape field; assay: weed control in rape field, descriptive statements
[19] = tested on: rape; assay: safety to crops
Procedure: The herbicidal activities of the compositions were evaluated by plant symptoms such as stunting, deformity, chlorosis, and whitening. 0 represents that the compositions have no herbicidal effect or have safety to crops. 100 represents that the weeds or crops were completely killed. [table]

SMILES: COc1cc(OC)nc(Oc2ccccc2CNc2ccc(C(=O)OC(C)C)cc2)n1 [Pyribambenz-isopropyl, iso-propyl 4-({2-[(4,6-dimethoxypyrimidin-2-yl)oxy]benzyl}amino)benzoate]
- visual evaluation of weed effects ([1]; ALOAE 0 leaf, 30 g/ha): 90%
- visual evaluation of weed effects ([1]; ALOAE 0 leaf, 45 g/ha): 90%
- visual evaluation of weed effects ([1]; ALOAE 3 leaves, 30 g/ha): 100%
- visual evaluation of weed effects ([1]; ALOAE 3 leaves, 45 g/ha): 100%
- visual evaluation of weed effects ([2]; 30 g/ha): 30%
- visual evaluation of weed effects ([2]; 45 g/ha): 30%
- visual evaluation of weed effects ([3]; 30 g/ha): 60%
- visual evaluation of weed effects ([3]; 45 g/ha): 80%
- visual evaluation of weed effects ([4]; 30 g/ha): 60%
- visual evaluation of weed effects ([4]; 45 g/ha): 90%
- visual evaluation of weed effects ([5]; 30 g/ha): 80%
- visual evaluation of weed effects ([5]; 45 g/ha): 80%
- visual evaluation of weed effects ([6]; 30 g/ha): 80%
- visual evaluation of weed effects ([6]; 45 g/ha): 90%
- visual evaluation of weed effects ([7]; 30 g/ha): 85%
- visual evaluation of weed effects ([7]; 45 g/ha): 90%
- visual evaluation of weed effects ([8]; 30 g/ha): 50%
- visual evaluation of weed effects ([8]; 45 g/ha): 60%
- visual evaluation of weed effects ([9]; GALAP 7˜8 leaves, 30 g/ha): 0%
- visual evaluation of weed effects ([9]; GALAP 7˜8 leaves, 45 g/ha): 0%
- visual evaluation of weed effects ([9]; GALAP, 30 g/ha): 20%
- visual evaluation of weed effects ([9]; GALAP, 45 g/ha): 20%
- visual evaluation of weed effects ([10]; 30 g/ha): 85%
- visual evaluation of weed effects ([10]; 45 g/ha): 90%
- visual evaluation of weed effects ([11]; 30 g/ha): 50%
- visual evaluation of weed effects ([11]; 45 g/ha): 60%
- visual evaluation of weed effects ([12]; 30 g/ha): 20%
- visual evaluation of weed effects ([12]; 45 g/ha): 30%
- visual evaluation of weed effects ([13]; 30 g/ha): 90%
- visual evaluation of weed effects ([13]; 45 g/ha): 90%
- visual evaluation of weed effects ([14]; 30 g/ha): 50%
- visual evaluation of weed effects ([14]; 45 g/ha): 70%
- visual evaluation of weed effects ([15]; CERAR 3˜4 leaves, 30 g/ha): 40%
- visual evaluation of weed effects ([15]; CERAR 3˜4 leaves, 45 g/ha): 60%
- visual evaluation of weed effects ([15]; CERAR, 30 g/ha): 80%
- visual evaluation of weed effects ([15]; CERAR, 45 g/ha): 90%
- visual evaluation of weed effects ([16]; GALAP 7˜8 leaves, 30 g/ha): 0%
- visual evaluation of weed effects ([16]; GALAP 7˜8 leaves, 45 g/ha): 10%
- visual evaluation of weed effects ([16]; GALAP, 30 g/ha): 30%
- visual evaluation of weed effects ([16]; GALAP, 45 g/ha): 50%
- visual evaluation of weed effects ([17]; POAAN 2˜3 leaves, 30 g/ha): 80%
- visual evaluation of weed effects ([17]; POAAN 2˜3 leaves, 45 g/ha): 95%
- visual evaluation of weed effects ([17]; POAAN, 30 g/ha): 95%
- visual evaluation of weed effects ([17]; POAAN, 45 g/ha): 98%
- weed control ([18]; Alopecurus aequalis, Alopecurus japonicus, Stellaria aquatica, Stallaria media and Atellaria alsine): high-effectively control; also recorded: effective weed control
- effectiveness of control ([18]; second important weeds in rape field: Poa annua, sclerochloa kengiana, Beckmannia syzigachne, Polypogon fugax, broadleaf Cardlamine hirsuta, Galium aparine, Lapsana apogonoides, Hemistepta lyrata): moderate
- selectivity between rape and weeds ([19]; in vivo): good selectivity
- safety to crops ([19]; rape / objective crops): safety toward rape

Source: patent US20060276340A1, “HERBICIDE COMPOSITION COMPRISING PYRIBAMBENZ-PROPYL OR PYRIBAMBENZ-ISOPROPYL” (Zhejiang Chem-Tech Group Co., Ltd., priority 2003, published 2006)
